Here are results for 66 molecules from ChEMBL document CHEMBL1150417, “Discovery of novel small-molecule inhibitors of human epidermal growth factor receptor-2: combined ligand and target-based approach” (J Med Chem, 2008).

Broadly, the IC50 is the concentration at which inhibition is half-maximal.

The first test deals with Receptor tyrosine-protein kinase erbB-2 (Homo sapiens, UniProt P04626). As to the kind of experiment: Inhibition of HER2.
Sequence of Receptor tyrosine-protein kinase erbB-2 (P04626 whole entry): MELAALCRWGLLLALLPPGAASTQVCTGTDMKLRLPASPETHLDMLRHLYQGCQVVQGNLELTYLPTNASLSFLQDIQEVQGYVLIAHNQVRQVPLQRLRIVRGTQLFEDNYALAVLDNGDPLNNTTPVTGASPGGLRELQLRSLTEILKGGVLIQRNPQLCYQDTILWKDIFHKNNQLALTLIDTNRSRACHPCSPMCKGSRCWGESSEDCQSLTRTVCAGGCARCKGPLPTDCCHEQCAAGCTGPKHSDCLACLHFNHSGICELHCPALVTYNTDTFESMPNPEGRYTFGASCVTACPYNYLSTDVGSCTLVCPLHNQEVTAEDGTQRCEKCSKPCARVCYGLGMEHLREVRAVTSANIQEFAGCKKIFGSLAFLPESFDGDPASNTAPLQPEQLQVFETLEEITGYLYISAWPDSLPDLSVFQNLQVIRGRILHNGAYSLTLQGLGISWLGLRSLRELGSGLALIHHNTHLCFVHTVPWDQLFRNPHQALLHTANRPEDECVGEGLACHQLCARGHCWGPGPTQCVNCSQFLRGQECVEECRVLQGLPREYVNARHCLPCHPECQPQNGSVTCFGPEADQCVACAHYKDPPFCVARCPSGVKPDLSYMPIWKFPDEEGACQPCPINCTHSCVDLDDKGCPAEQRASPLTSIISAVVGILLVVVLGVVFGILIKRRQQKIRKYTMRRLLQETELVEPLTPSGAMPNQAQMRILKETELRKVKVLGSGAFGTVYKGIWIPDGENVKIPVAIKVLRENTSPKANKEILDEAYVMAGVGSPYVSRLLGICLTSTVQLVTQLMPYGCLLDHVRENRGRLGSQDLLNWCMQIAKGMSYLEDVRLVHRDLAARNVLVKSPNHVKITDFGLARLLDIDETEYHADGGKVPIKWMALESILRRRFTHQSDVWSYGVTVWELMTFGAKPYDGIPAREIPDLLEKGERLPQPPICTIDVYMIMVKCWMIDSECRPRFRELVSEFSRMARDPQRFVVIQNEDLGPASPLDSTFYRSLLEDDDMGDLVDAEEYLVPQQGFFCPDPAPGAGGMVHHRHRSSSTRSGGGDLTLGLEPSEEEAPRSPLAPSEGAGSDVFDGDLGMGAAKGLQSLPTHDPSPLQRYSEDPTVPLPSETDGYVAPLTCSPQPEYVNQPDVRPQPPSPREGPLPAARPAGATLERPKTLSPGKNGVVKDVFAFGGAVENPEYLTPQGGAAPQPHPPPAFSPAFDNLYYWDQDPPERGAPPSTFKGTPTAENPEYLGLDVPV
Details: not given
As for `CCCCn1c(S(=O)(=O)c2cc(OC)c(OC)c(OC)c2)nc2c(N)ncnc21`, the IC50 amounted to 310 µM.
For the molecule `Nc1ncnc2nc(Sc3cc(Cl)ccc3Cl)[nH]c12`, the IC50 amounted to 120 µM.
The same measure, in the same setting: to `CS(=O)(=O)CCNCc1nc(-c2ccc3ncnc(Nc4ccc(OCc5cccc(F)c5)c(Cl)c4)c3c2)cs1` belongs 0.01 µM; to `COc1cc2nccc(Nc3ccc(N4C(=O)c5ccc(Cl)cc5C4=O)c(C)c3)c2cc1OC`, 1.7 µM; to `CONC(=O)c1ccc(F)c(Nc2ncnn3cc(NC(=O)OCCCS(C)(=O)=O)c(C(C)C)c23)c1`, 5.3 µM.
`c1ccc(Oc2ccc(Nc3ccnc4ccccc34)cc2)cc1` showed an IC50 of 0.733 µM.
Still for that read-out and setting: then `Cc1cc2nc(CBr)c(-c3ccccc3)nc2cc1C`, with 21 µM.
Consider `COCOCC#CC(=O)Nc1ccc2ncnc(Nc3cccc(Br)c3)c2c1`, for which it took 0.009 µM to reach half-maximal inhibition (IC50).
`COCC(=O)NC/C=C/c1ccc2ncnc(Nc3ccc(Oc4ccc(C)nc4)c(C)c3)c2c1` [CP-724714] registered an IC50 of 0.012 µM.

The next test concerns SK-BR-3. The experiment in a line: Cytotoxicity against human SKBr3 cells after 72 hrs by MTT assay. As to conditions: SK-BR-3, 72 h. The class given is functional, cell-based.
For `CCc1cc2c(NCCc3ccc(OC)c(OC)c3)ncnc2s1`, the IC50 came to 14 µM.
The molecule `Brc1ccc2ncnc(NCCc3ccccc3)c2c1` displayed an IC50 of 15 µM. This IC50 and that of the molecule before are within 1.5-fold of each other.
On the same count and under the same terms, to `c1ccc(OCCOc2ccc(Nc3ccnc4cc5ccccc5cc34)cc2)cc1` belongs 2 µM.
On the same count and under the same terms, then `CN1CCN(c2ccc(Nc3ncnc4sc5c(c34)CCCC5)cc2)CC1`, with 9 µM; and `c1ccc(CCNc2ccnc3cc4ccccc4cc23)cc1`, with 8 µM.
Molecule `CCN(CC)c1ccc(NC(=O)CSc2ncnc3sc(C)c(C)c23)cc1C` displayed an IC50 of 16 µM.
Still for that read-out and setting: then `Fc1ccccc1CCNc1c2c(nc3ncnn13)CCCC2`, with 14 µM.
On the same count and under the same terms, to `CCN(CC)CCNc1ccc(Nc2ccnc3cc4ccccc4cc23)cc1` belongs 2 µM; to `COc1ccc2nc(C)cc(Nc3ccc(Oc4ccc(Cl)cc4)c(Cl)c3)c2c1`, 5 µM.
The same measure, in the same setting: then `COc1ccc2nc(C)cc(Nc3ccc(Oc4ccc5ccccc5c4)c(Cl)c3)c2c1`, with 5 µM; and `COc1ccc(CCNc2cc(-c3ccccc3)nc3ncnn23)cc1`, with 9 µM.
In turn, `CN1CCN(CCCNc2ccnc3cc4ccccc4cc23)CC1` came in with an IC50 of 15 µM. Compared with the last molecule, the IC50 is about 1.7-fold higher.

A further test has as its system SK-BR-3. As to the kind of experiment: Cytotoxicity against human SKBR3 cells at 10 uM after 72 hrs by MTT assay.
Details: not given
Format: functional. For orientation: Formazan colour is commonly taken as a measure of viable cells.
Regarding `COc1ccc(CN(CC(=O)NC2CCCC2)C(=O)Cn2cnc3sc(C)c(C)c3c2=O)cc1`, the Activity is on record as 21%.
Same read-out and setting: then `CCc1ccccc1NC(=O)NCCCNc1nc2cc(C)cc(C)c2cc1C#N`, with 29%.
Molecule `CCOC(=O)c1ccc(Nc2c([N+](=O)[O-])c(=O)oc3ccccc23)cc1` showed an Activity of 5%.
Still for that read-out and setting: then `CCOc1ccc(OCC)c(NC(=O)CSc2nc3c(C)cccc3cc2C#N)c1`, with 16%; and `COc1ccc(NC(=O)Cn2nnc(-c3ccccc3NC(=O)c3cccs3)n2)cc1`, with 27%.
Still for that read-out and setting: then `COc1ccc(-c2nc3cc(NC(=O)COc4ccc(C)cc4C)ccc3o2)cc1Br`, with 32%.
Still for that read-out and setting: to `Cc1ccc2[nH]cc(CCNC(=O)c3cccnc3)c2c1` belongs 1%.
In turn, `CCOC(=O)c1ccc(Nc2cc(C)nc3ncnn23)cc1` registered an Activity of 1%.
In the case of `Cc1cc2cc(CN(Cc3cccs3)C(=O)Nc3ccccc3F)c(=O)[nH]c2cc1C`, the Activity is listed as 19%.
Still for that read-out and setting: to `CCOC(=O)c1c(-c2ccccc2)csc1NC(=O)CSc1ncnc2sc3c(c12)CCCC3` belongs 11%.
Consider `O=C(Nc1ccc(Oc2ccc3nsnc3c2)c(Cl)c1)c1cc(Cl)ccc1O`, for which the Activity was determined as 30%.
Same read-out and setting: then `Cc1ccc2[nH]c(=O)c(CN(Cc3cccs3)C(=O)c3ccco3)cc2c1`, with 22%; and `CCC(C)(C)C1CCc2sc3ncnc(N/N=C(\C)c4ccc(OC)cc4)c3c2C1` (stereo unspecified), with 12%.
On to `Cc1cc(Nc2ccc(N3CCC(C)CC3)cc2)n2ncnc2n1`, for which the Activity was 25%.
Still for that read-out and setting: then `O=C(CSc1ncnc2sc3c(c12)CCCC3)NCc1cccc2c1OCO2`, with 16%; and `O=C(CSc1ncnc2sc3c(c12)CCCC3)Nc1ccc(S(=O)(=O)N2CCCCCC2)cc1`, with 11%.
On the same count and under the same terms, to `CCOc1ccc(Nc2nc(NCCO)nc(C)c2[N+](=O)[O-])cc1` belongs 32%; to `Cc1nc2cc(NCc3ccccc3O)ccc2n1Cc1ccccc1`, 13%.
Same read-out and setting: to `c1cncc(CNc2ncnc3ccccc23)c1` belongs 15%; to `COc1cccc(-c2cc3cc4c(c(NCc5cc(OC)c(OC)c(OC)c5)n3n2)CCC4)c1`, 4%; to `O=C(Nc1cccc(NC(=O)c2ccc(Cl)cc2Cl)c1)c1cccnc1`, 2%.
For `COc1ccc(CCNc2c(Cc3ccccc3)c(C)nc3ncnn23)cc1OC`, the Activity was 21%.
In turn, `COc1cccc(OC)c1C(=O)Nc1ccc2c(c1)OCC(=O)N2Cc1ccccc1Cl` returned an Activity of 2%.
`COc1cc(NC(=O)CSc2nnnn2-c2ccc3c(c2)OCCO3)cc(OC)c1` showed an Activity of 15%.
As for `O=[N+]([O-])c1ccccc1-c1nnc(CSc2ncnc3sc4c(c23)CCCC4)o1`, the Activity is recorded as 7%.
As to `O=C(CSc1ncnc2sc3c(c12)CCC3)Nc1ccc(S(=O)(=O)N2CCOCC2)cc1`, the Activity worked out at 12%.
Same read-out and setting: to `c1ccc2c(NCCCNc3ncnc4ccccc34)ncnc2c1` belongs 32%; to `COc1ccc2[nH]c(=O)c(CN(CCc3cccc(C)c3)C(C)=O)cc2c1`, 5%; to `Cc1sc(NC(=O)CSc2ncnc3sc4c(c23)CCCC4)c(C#N)c1C`, 26%.
Take `COc1cc(/C=N/Nc2ncnc3sc4c(c23)CCCC4)ccc1OCC(=O)Nc1ccccc1`: the Activity is 32%.
Molecule `O=C(Nc1ncnc2sc3c(c12)CCC3)c1cccs1` displayed an Activity of 20%.
The molecule `O=C(NC1CCCC1)C(c1cccs1)N(C(=O)Cc1cccs1)c1ccc2c(c1)OCCO2` (stereo unspecified) registered an Activity of 16%.
On the same count and under the same terms, to `Cc1cc(O)nc(SCC(=O)Nc2ccc(C(=O)NC3CCCCC3)cc2)n1` belongs 21%; to `Cc1nn(-c2ccccc2)c2sc(C(=O)N(CC(=O)NC3CCCC3)C3CC3)cc12`, 22%.
Take `O=C(CSc1ncnc2sc3c(c12)CCCC3)Nc1nc(-c2ccc(F)cc2)cs1`: the Activity was found to be 32%.
`CCOc1ccc(Nc2c3c(nc4ncnn24)CCC3)cc1`: the Activity is 26%.
The molecule `CC1CCc2c(sc3ncnc(NCc4ccco4)c23)C1` (stereo unspecified) displayed an Activity of 2%.
The same measure, in the same setting: to `COc1cc(CNCc2cccnc2)ccc1OCc1ccccc1Cl` belongs 1%.
Turning to `COC(=O)c1sc(NC(=O)CSc2nc(C3CC3)nc3sc4c(c23)CCCC4)nc1C`, the Activity is listed as 31%.
`Clc1cc(Nc2c3ccccc3nc3ccccc23)ccc1Oc1ccc2ccccc2c1Br`: the Activity came to 3%.
On the same count and under the same terms, to `CCn1nnnc1SCC(=O)Nc1ccc(OCc2ccccc2)cc1` belongs 19%; to `O=C(CSc1ncnc2sc3c(c12)CCCC3)Nc1nc(-c2ccccc2)cs1`, 34%; to `COc1cc(OCC(=O)Nc2cccc([N+](=O)[O-])c2)ccc1/C=N/Nc1ncnc2sc3c(c12)CCCC3`, 7%.
The molecule `Cc1ccc(-c2csc3ncnc(SCC(=O)Nc4nc(-c5ccccc5)cs4)c23)cc1` came in with an Activity of 33%.
Regarding `Cc1ccc(S(=O)(=O)N(Cc2ccc3c(c2)OCO3)Cc2cc3ccc(C)c(C)c3[nH]c2=O)cc1`, the Activity came out at 12%.
